In PMC2195641 (The Journal of Experimental Medicine, 1999):
Where a SMILES comes first, the peptide text is derived from it.

Target: T1, purified I-E^k molecules (Mus musculus, UniProt P04224+P04231)
T1 sequence (P04224 26-255): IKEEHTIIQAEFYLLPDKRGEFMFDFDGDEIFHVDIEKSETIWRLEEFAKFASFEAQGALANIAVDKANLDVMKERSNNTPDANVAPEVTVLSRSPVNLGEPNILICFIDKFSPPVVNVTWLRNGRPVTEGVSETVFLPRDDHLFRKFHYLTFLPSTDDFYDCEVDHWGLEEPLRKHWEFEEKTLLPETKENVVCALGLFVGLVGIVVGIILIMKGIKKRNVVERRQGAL
T1 sequence (P04231 1-232): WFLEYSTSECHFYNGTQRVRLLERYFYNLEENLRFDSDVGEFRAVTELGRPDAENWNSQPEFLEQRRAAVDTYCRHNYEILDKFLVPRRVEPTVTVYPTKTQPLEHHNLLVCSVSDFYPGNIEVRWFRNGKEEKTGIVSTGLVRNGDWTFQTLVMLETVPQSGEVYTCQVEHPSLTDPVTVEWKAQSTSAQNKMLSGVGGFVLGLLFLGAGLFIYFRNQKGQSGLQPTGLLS
Assay: I-E^k binding assay

## CC[C@H](C)[C@H](NC(=O)[C@H](C)NC(=O)[C@H](C)NC(=O)[C@H](C)NC(=O)[C@H](C)NC(=O)[C@H](C)NC(=O)[C@H](C)NC(=O)[C@H](C)N)C(=O)N[C@@H](C)C(=O)N[C@@H](Cc1ccc(O)cc1)C(=O)N[C@@H](C)C(=O)N[C@@H](CCCCN)C(=O)N[C@@H](CCC(N)=O)C(=O)N[C@@H](C)C(=O)N[C@H](C(=O)N[C@@H](CCCCN)C(=O)O)[C@@H](C)O [pMCC-A] (H-AAAAAAAIAYAKQATK-OH)
  IC50: 36 nM
